According to article PMC8286840, “Identifying SARS-CoV-2 antiviral compounds by screening for small molecule inhibitors of Nsp3 papain-like protease” (Biochemical Journal, 2021):
Counter-ions that a name gives are not always drawn. Like-named read-outs stand apart in the source and are kept apart here.

Experiments:
[1] = molecular target: T1, SARS-CoV-2 PLpro (nsp3 1564–1878) (Severe acute respiratory syndrome coronavirus 2, UniProt P0DTD1); assay: biochemical; design: FRET-quenched peptide (Pro3) cleavage by PLpro, 10 min pre-incubation, slope over 20 min, normalised to no-compound control; settings: high concentration screen, read-out: % of control remaining
[2] = molecular target: T1, SARS-CoV-2 PLpro (nsp3 1564–1878); assay: biochemical; design: FRET-quenched peptide (Pro3) cleavage by PLpro, 10 min pre-incubation, slope over 20 min, normalised to no-compound control; settings: low concentration screen, read-out: % of control remaining

SMILES: C[C@]12CCC(=O)C=C1CC[C@@H]1[C@@H]2C(=O)C[C@@]2(C)[C@H]1CC[C@]2(O)C(=O)CO [Cortisone]
- remaining activity at 3.75 µM ([1]; Well no.=381): 93.5%
- remaining activity at 3.75 µM ([1]; Well no.=6485): 101%
- remaining activity at 3.75 µM ([1]; Well no.=7431): 100%
- remaining activity at 1.25 µM ([2]; Well no.=381): 90.6%
- remaining activity at 1.25 µM ([2]; Well no.=6485): 101%
- remaining activity at 1.25 µM ([2]; Well no.=7431): 102%

SMILES: CCCCNc1c(C(=O)OCC)c(C)nc2c1cnn2CC [Tracazolate]
- remaining activity at 3.75 µM ([1]; Well no.=1472): 93.7%
- remaining activity at 1.25 µM ([2]; Well no.=1472): 93.2%

SMILES: CCOC(=O)CC(=O)N1CCSC1COc1ccccc1OC (centres unmarked) [Moguisteine]
- remaining activity at 3.75 µM ([1]; Well no.=4931): 95.6%
- remaining activity at 1.25 µM ([2]; Well no.=4931): 98.7%

SMILES: CN1CCN(CCCN2c3ccccc3Sc3ccc(Cl)cc32)CC1 [Prochlorperazine dimaleate]
- remaining activity at 3.75 µM ([1]; Well no.=1497): 101%
- remaining activity at 1.25 µM ([2]; Well no.=1497): 99.3%

SMILES: Cn1cnc2c(NCc3ccccc3)nc(NCCO)nc21 [Olomoucine]
- remaining activity at 3.75 µM ([1]; Well no.=800): 98.3%
- remaining activity at 1.25 µM ([2]; Well no.=800): 96.5%

SMILES: CC(=O)OCC(=O)[C@@]1(O)CC[C@H]2[C@@H]3CCC4=CC(=O)C=C[C@]4(C)[C@H]3[C@@H](O)C[C@@]21C [Prednisolone acetate]
- remaining activity at 3.75 µM ([1]; Well no.=5859): 95.6%
- remaining activity at 1.25 µM ([2]; Well no.=5859): 102%

SMILES: N=C(N)c1ccc(OCCCCCOc2ccc(C(=N)N)cc2)cc1 [Pentamidine HCl]
- remaining activity at 3.75 µM ([1]; Well no.=4648): 98.1%
- remaining activity at 1.25 µM ([2]; Well no.=4648): 98.3%

SMILES: CC(=O)Oc1ccccc1C(=O)O [Acetylsalicylic acid]
- remaining activity at 3.75 µM ([1]; Well no.=161): 97.3%
- remaining activity at 3.75 µM ([1]; Well no.=2067): 103%
- remaining activity at 1.25 µM ([2]; Well no.=161): 101%
- remaining activity at 1.25 µM ([2]; Well no.=2067): 102%

SMILES: Cc1ccc(NC(=O)C2(c3ccc4c(c3)OC(F)(F)O4)CC2)nc1-c1cccc(C(=O)O)c1 [VX-809]
- remaining activity at 3.75 µM ([1]; Well no.=4961): 95%
- remaining activity at 1.25 µM ([2]; Well no.=4961): 95.6%

SMILES: CC[N+](CC)(CC)CCOc1cccc(OCC[N+](CC)(CC)CC)c1OCC[N+](CC)(CC)CC [Gallamine triethiodide]
- remaining activity at 3.75 µM ([1]; Well no.=717): 87.8%
- remaining activity at 3.75 µM ([1]; Well no.=6753): 103%
- remaining activity at 1.25 µM ([2]; Well no.=717): 91.1%
- remaining activity at 1.25 µM ([2]; Well no.=6753): 105%

SMILES: O=c1c(-c2ccc(F)cc2)c(-c2ccncc2)[nH]n1-c1ccc(Cl)cc1 [p38 MAP Kinase Inhibitor]
- remaining activity at 3.75 µM ([1]; Well no.=2598): 99.2%
- remaining activity at 1.25 µM ([2]; Well no.=2598): 97.4%

SMILES: CC(C)=CCC[C@](C)(O[C@@H]1O[C@H](CO[C@@H]2O[C@@H](CO)[C@H](O)[C@H]2O)[C@@H](O)[C@H](O)[C@H]1O)[C@H]1CC[C@]2(C)[C@@H]1[C@H](O)C[C@@H]1[C@@]3(C)CC[C@H](O[C@@H]4O[C@H](CO)[C@@H](O)[C@H](O)[C@H]4O[C@@H]4O[C@H](CO)[C@@H](O)[C@H](O)[C@H]4O)C(C)(C)[C@@H]3CC[C@]12C [Ginsenoside Rc]
- remaining activity at 3.75 µM ([1]; Well no.=6436): 92.6%
- remaining activity at 1.25 µM ([2]; Well no.=6436): 93.3%

SMILES: N#C/C(=C\c1ccc(O)c(O)c1)C(=O)NCc1ccccc1 [AG 490 - (E)-2-Cyano-3-(3,4-dihydrophenyl)-N-(phenylmethyl)-2-propenamide]
- remaining activity at 3.75 µM ([1]; Well no.=2332): 93.5%
- remaining activity at 1.25 µM ([2]; Well no.=2332): 95%

SMILES: COC1=C2C[C@@H](C)C[C@H](OC)[C@H](O)[C@@H](C)/C=C(\C)[C@H](OC(N)=O)[C@@H](OC)/C=C\C=C(/C)C(=O)NC(=CC1=O)C2=O [Geldanamycin]
- remaining activity at 3.75 µM ([1]; Well no.=5019): 101%
- remaining activity at 1.25 µM ([2]; Well no.=5019): 98.5%

SMILES: CN(C)CCC(c1ccc(Br)cc1)c1ccccn1 (racemic)
- remaining activity at 3.75 µM ([1]; Well no.=219): 97.9%
- remaining activity at 1.25 µM ([2]; Well no.=219): 97.7%

SMILES: O=C(O)c1cc(O)ccc1O [Gentisic acid]
- remaining activity at 3.75 µM ([1]; Well no.=3955): 100%
- remaining activity at 1.25 µM ([2]; Well no.=3955): 110%

SMILES: COC(=O)Nc1nc2cc(C(=O)c3ccccc3)ccc2[nH]1 [Mebendazol]
- remaining activity at 3.75 µM ([1]; Well no.=1947): 100%
- remaining activity at 1.25 µM ([2]; Well no.=1947): 99%

SMILES: COc1cnc(NS(=O)(=O)c2ccc(N)cc2)nc1 [Sulfameter]
- remaining activity at 3.75 µM ([1]; Well no.=7406): 100%
- remaining activity at 3.75 µM ([1]; Well no.=8236): 88.3%
- remaining activity at 1.25 µM ([2]; Well no.=7406): 98.3%
- remaining activity at 1.25 µM ([2]; Well no.=8236): 91.9%

SMILES: COc1ccc(C(=O)c2c(C)n(CCN3CCOCC3)c3cc(I)ccc23)cc1 [AM630]
- remaining activity at 3.75 µM ([1]; Well no.=5463): 107%
- remaining activity at 3.75 µM ([1]; Well no.=7903): 106%
- remaining activity at 1.25 µM ([2]; Well no.=5463): 103%
- remaining activity at 1.25 µM ([2]; Well no.=7903): 98.5%

SMILES: O=C(O)C1CCNCC1 [Isonipecotic acid]
- remaining activity at 3.75 µM ([1]; Well no.=1067): 96.7%
- remaining activity at 1.25 µM ([2]; Well no.=1067): 92.8%

SMILES: CCC(CC)CC1(C(=O)Nc2ccccc2SC(=O)C(C)C)CCCCC1 [Dalcetrapib (JTT-705, RO4607381)]
- remaining activity at 3.75 µM ([1]; Well no.=8198): 102%
- remaining activity at 1.25 µM ([2]; Well no.=8198): 102%

SMILES: CCCN(CCc1cccs1)C1CCc2c(O)cccc2C1 (racemic) [rac-Rotigotine (Hydrochloride)]
- remaining activity at 3.75 µM ([1]; Well no.=6809): 95.7%
- remaining activity at 1.25 µM ([2]; Well no.=6809): 98.8%

SMILES: Cc1ccc(S(=O)(=O)/C=C/C#N)cc1 [BAY 11-7082]
- remaining activity at 3.75 µM ([1]; Well no.=79): 99.5%
- remaining activity at 3.75 µM ([1]; Well no.=2360): 99.1%
- remaining activity at 3.75 µM ([1]; Well no.=6204): 104%
- remaining activity at 1.25 µM ([2]; Well no.=79): 102%
- remaining activity at 1.25 µM ([2]; Well no.=2360): 98.2%

SMILES: CN(C)CCCN1c2ccccc2CCc2ccc(Cl)cc21 [Clomipramine hydrochloride]
- remaining activity at 3.75 µM ([1]; Well no.=328): 98.6%
- remaining activity at 1.25 µM ([2]; Well no.=328): 101%

SMILES: CN1[C@@H]2CC(O)C[C@H]1[C@@H]1O[C@@H]12 (some centres unmarked) [Scopine HCl]
- remaining activity at 3.75 µM ([1]; Well no.=4914): 84%
- remaining activity at 1.25 µM ([2]; Well no.=4914): 87.1%

SMILES: NS(=O)(=O)c1cccc2c1c([N+](=O)[O-])cc1nc(O)c(O)nc12 [NBQX disodium]
- remaining activity at 3.75 µM ([1]; Well no.=942): 98%
- remaining activity at 1.25 µM ([2]; Well no.=942): 101%

SMILES: CCOC(=O)c1cnn(-c2ccccc2)c1NC(=O)c1cc2nc(-c3ccco3)cc(C(F)(F)Cl)n2n1 [Mycro 3]
- remaining activity at 3.75 µM ([1]; Well no.=7158): 94.4%
- remaining activity at 1.25 µM ([2]; Well no.=7158): 96%

SMILES: N[C@@H](Cc1c[nH]c2ccc(O)cc12)C(=O)O [L-5-Hydroxytryptophan]
- remaining activity at 3.75 µM ([1]; Well no.=7409): 104%
- remaining activity at 1.25 µM ([2]; Well no.=7409): 99.9%

SMILES: CCCCC/C=C/C/C=C/C/C=C/C/C=C/CCCCCC(=O)O [Adrenic acid (22:4 n-6)]
- remaining activity at 3.75 µM ([1]; Well no.=4253): 98.5%
- remaining activity at 1.25 µM ([2]; Well no.=4253): 105%

SMILES: CC(CN(C)C)CN1c2ccccc2Sc2ccc(C#N)cc21 (centres unmarked) [Cyamemazine]
- remaining activity at 3.75 µM ([1]; Well no.=5789): 105%
- remaining activity at 1.25 µM ([2]; Well no.=5789): 102%

SMILES: CC(=O)SCC[N+](C)(C)C [Acetylthiocholine chloride]
- remaining activity at 3.75 µM ([1]; Well no.=257): 99.3%
- remaining activity at 1.25 µM ([2]; Well no.=257): 97.5%
